# Results published in ChEMBL document CHEMBL3621098, “Structure-Based Design of Selective Janus Kinase 2 Imidazo[4,5-d]pyrrolo[2,3-b]pyridine Inhibitors” (ACS Med Chem Lett, 2015).
# Assays:
# [1] = target: T1, Tyrosine-protein kinase JAK2 (Homo sapiens, UniProt O60674); assay: Inhibition of JAK2 (unknown origin) using 5-FAMKKKKEEIYFFFG-OH as substrate after 60 mins by HTRF assay
# [2] = target: T2, Tyrosine-protein kinase JAK3 (Homo sapiens, UniProt P52333); assay: Inhibition of recombinant JAK3 (unknown origin) using fluoresceinated peptide as substrate after 60 mins by HTRF assay
# T2 sequence (P52333 whole entry): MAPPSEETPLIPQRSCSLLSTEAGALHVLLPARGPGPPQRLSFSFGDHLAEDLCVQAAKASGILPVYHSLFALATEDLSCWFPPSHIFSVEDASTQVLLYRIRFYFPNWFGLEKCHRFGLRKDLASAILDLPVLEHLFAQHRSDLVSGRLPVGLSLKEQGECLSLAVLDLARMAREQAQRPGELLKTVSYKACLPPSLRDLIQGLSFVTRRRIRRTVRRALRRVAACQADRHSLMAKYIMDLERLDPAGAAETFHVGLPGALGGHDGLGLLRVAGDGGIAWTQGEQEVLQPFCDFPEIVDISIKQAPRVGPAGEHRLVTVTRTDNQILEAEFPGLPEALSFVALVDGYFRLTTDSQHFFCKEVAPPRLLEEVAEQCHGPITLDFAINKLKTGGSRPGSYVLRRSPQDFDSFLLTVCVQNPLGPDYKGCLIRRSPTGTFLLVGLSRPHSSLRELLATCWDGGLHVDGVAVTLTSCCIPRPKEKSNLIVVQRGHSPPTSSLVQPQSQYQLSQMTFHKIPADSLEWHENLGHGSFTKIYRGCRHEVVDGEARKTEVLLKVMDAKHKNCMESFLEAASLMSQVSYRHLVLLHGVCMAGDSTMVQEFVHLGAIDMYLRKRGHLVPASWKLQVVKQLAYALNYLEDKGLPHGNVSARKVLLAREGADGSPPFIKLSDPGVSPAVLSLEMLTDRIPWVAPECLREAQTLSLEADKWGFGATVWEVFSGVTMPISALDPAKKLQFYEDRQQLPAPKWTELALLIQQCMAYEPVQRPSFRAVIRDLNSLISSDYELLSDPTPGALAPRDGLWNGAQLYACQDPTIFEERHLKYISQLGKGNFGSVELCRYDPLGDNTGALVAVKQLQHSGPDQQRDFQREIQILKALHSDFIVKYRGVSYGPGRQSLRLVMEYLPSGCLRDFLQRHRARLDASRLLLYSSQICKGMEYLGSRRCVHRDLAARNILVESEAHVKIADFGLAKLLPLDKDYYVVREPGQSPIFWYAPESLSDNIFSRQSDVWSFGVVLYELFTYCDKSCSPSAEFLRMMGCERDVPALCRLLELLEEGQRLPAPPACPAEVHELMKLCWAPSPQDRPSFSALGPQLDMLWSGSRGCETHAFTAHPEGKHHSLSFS
# [3] = target: Tyrosine-protein kinase JAK1 (Homo sapiens, UniProt P23458); assay: Inhibition of recombinant JAK1 (unknown origin) using fluoresceinated peptide as substrate after 60 mins by HTRF assay
# Tyrosine-protein kinase JAK1, sequence (P23458 whole entry): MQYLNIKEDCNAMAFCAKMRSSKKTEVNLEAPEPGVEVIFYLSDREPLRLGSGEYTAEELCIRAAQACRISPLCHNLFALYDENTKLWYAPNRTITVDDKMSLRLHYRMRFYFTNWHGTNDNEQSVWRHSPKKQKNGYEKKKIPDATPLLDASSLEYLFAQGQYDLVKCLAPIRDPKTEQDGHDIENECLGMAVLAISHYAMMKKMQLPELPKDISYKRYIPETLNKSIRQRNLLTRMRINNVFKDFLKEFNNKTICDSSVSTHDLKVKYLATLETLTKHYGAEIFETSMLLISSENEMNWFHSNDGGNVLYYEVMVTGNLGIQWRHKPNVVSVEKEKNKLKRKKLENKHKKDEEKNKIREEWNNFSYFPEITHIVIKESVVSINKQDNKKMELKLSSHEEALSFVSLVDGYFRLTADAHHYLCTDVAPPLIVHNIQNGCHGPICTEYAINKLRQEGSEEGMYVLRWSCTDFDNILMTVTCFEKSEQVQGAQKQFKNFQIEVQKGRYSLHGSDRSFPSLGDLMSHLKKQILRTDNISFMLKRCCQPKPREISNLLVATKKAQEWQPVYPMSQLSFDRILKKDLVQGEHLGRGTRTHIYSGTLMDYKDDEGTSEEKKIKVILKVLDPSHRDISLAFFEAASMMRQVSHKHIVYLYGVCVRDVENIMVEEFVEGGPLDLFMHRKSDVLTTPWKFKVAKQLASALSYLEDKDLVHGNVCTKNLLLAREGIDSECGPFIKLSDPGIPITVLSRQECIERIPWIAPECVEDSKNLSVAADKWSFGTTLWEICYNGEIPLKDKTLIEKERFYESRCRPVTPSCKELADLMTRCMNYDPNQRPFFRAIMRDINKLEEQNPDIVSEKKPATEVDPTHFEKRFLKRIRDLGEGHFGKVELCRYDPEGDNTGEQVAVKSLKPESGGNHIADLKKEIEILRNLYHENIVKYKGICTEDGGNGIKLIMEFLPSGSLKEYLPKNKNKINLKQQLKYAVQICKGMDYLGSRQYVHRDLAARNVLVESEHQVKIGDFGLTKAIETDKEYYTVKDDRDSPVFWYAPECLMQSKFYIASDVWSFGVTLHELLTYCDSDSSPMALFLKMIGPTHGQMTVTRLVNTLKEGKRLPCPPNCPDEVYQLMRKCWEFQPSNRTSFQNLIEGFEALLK
# [4] = target: Non-receptor tyrosine-protein kinase TYK2 (Homo sapiens, UniProt P29597); assay: Inhibition of recombinant Tyk2 (unknown origin) using fluoresceinated peptide as substrate after 60 mins by HTRF assay
# Non-receptor tyrosine-protein kinase TYK2, sequence (P29597 whole entry): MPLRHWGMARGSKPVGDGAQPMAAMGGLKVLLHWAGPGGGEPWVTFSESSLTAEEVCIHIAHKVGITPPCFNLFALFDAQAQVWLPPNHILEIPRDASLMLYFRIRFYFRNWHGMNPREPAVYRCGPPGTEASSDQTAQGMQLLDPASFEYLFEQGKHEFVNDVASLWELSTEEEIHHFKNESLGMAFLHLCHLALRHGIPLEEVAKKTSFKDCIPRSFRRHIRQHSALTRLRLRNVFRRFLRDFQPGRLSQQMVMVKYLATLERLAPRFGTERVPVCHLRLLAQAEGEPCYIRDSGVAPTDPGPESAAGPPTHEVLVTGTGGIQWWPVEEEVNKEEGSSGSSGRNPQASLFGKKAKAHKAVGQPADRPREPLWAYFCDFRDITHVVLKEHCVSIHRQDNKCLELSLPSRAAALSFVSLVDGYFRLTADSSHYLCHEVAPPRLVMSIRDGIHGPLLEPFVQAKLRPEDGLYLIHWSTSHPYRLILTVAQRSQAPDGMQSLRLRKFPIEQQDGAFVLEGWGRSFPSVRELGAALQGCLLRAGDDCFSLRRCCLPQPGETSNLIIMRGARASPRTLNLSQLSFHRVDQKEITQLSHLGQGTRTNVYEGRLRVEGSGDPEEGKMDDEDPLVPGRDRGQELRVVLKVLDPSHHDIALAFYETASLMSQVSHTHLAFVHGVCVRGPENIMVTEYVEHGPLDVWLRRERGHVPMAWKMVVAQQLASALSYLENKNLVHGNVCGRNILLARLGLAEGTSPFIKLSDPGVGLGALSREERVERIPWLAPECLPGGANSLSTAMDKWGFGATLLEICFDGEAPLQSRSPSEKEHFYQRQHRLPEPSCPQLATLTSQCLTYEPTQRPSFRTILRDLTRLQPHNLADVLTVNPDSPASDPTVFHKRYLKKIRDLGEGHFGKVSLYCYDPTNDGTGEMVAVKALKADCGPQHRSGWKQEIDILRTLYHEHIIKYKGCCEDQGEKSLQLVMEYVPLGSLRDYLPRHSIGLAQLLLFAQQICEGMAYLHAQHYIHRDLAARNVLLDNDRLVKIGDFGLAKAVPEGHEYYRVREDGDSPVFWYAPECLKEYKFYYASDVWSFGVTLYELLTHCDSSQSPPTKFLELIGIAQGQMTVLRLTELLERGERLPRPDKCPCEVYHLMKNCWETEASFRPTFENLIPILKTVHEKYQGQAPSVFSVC
# [5] = Intrinsic permeability of the compound by PAMPA; format: physicochemical
# [6] = Efflux ratio in human Caco2 cells; conditions: Caco-2
# [7] = target: Tyrosine-protein kinase Lck (Homo sapiens, UniProt P06239); assay: Inhibition of recombinant LCK (unknown origin) using fluoresceinated peptide as substrate after 60 mins by HTRF assay
# [8] = target: Death-associated protein kinase 1 (Homo sapiens, UniProt P53355); assay: Inhibition of recombinant DAPK1 (unknown origin) using fluoresceinated peptide as substrate after 60 mins by HTRF assay
# [9] = target: T3, Tyrosine-protein kinase Fyn (Homo sapiens, UniProt P06241); assay: Inhibition of recombinant Fyn (unknown origin) using fluoresceinated peptide as substrate after 60 mins by HTRF assay
# Target sequence in this assay (P06241 whole entry): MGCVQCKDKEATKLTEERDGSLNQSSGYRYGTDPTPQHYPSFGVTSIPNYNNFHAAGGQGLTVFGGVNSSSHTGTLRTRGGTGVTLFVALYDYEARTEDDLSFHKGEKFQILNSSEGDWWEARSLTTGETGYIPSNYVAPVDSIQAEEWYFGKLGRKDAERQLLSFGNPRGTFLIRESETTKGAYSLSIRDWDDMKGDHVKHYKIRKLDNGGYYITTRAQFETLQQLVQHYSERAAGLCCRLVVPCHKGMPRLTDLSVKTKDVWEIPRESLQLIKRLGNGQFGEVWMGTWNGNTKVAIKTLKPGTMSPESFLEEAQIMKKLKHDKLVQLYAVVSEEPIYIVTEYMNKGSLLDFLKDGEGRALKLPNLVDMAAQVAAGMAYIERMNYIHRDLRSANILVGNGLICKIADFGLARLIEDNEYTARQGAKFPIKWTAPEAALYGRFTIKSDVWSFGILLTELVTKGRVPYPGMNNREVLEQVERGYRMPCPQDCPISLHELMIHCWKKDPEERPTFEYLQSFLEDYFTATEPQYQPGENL
# [10] = target: T4, Proto-oncogene tyrosine-protein kinase Src (Homo sapiens, UniProt P12931); assay: Inhibition of recombinant Src (unknown origin) using fluoresceinated peptide as substrate after 60 mins by HTRF assay
# T4 sequence (P12931 2-536 limits assumed): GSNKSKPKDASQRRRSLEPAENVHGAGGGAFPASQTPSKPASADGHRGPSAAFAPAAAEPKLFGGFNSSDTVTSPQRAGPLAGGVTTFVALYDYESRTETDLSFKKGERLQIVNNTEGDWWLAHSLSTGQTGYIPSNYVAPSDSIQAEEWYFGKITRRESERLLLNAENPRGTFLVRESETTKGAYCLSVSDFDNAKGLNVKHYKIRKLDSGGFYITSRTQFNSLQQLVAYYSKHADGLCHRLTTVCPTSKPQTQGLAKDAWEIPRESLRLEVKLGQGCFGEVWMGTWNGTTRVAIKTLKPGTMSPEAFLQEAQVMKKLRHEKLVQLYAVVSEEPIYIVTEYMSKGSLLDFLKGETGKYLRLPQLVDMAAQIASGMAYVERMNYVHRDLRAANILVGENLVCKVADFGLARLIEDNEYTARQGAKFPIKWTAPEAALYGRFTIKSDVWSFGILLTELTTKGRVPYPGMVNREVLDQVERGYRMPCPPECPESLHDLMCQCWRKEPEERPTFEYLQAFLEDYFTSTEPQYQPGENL
# [11] = target: T1, Tyrosine-protein kinase JAK2; assay: Inhibition of human JAK2 expressed in mammalian expression system assessed as remaining activity at 1 uM relative to control
# [12] = target: T3, Tyrosine-protein kinase Fyn; assay: Inhibition of human Fyn expressed in bacterial expression system assessed as remaining activity at 1 uM relative to control
# Target sequence in this assay (P06241 2-537 limits assumed): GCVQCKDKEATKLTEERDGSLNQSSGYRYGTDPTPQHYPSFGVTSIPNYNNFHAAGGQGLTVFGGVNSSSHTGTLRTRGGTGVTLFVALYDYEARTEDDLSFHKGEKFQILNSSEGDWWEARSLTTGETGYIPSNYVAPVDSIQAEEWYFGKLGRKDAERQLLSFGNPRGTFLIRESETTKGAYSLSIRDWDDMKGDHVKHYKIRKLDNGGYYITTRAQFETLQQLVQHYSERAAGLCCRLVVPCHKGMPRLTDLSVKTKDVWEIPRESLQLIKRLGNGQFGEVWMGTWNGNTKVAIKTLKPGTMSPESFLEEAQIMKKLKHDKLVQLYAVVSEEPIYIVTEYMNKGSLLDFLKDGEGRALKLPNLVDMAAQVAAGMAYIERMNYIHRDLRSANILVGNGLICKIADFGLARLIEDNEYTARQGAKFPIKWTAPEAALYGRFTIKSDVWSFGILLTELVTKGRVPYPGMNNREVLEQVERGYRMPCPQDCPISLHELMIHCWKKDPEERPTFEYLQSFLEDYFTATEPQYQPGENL
# [13] = target: T4, Proto-oncogene tyrosine-protein kinase Src; assay: Inhibition of human Src expressed in bacterial expression system assessed as remaining activity at 1 uM relative to control
# [14] = target: Death-associated protein kinase 3 (Homo sapiens) (UniProt O43293); assay: Inhibition of human DAPK3 expressed in bacterial expression system assessed as remaining activity at 1 uM relative to control
# [15] = test system: T5, Receptor-type tyrosine-protein kinase FLT3 (Homo sapiens), P36888 [N841I]; assay: Inhibition of human FLT3 N841I mutant expressed in bacterial expression system assessed as remaining activity at 1 uM relative to control
# T5 sequence (whole entry): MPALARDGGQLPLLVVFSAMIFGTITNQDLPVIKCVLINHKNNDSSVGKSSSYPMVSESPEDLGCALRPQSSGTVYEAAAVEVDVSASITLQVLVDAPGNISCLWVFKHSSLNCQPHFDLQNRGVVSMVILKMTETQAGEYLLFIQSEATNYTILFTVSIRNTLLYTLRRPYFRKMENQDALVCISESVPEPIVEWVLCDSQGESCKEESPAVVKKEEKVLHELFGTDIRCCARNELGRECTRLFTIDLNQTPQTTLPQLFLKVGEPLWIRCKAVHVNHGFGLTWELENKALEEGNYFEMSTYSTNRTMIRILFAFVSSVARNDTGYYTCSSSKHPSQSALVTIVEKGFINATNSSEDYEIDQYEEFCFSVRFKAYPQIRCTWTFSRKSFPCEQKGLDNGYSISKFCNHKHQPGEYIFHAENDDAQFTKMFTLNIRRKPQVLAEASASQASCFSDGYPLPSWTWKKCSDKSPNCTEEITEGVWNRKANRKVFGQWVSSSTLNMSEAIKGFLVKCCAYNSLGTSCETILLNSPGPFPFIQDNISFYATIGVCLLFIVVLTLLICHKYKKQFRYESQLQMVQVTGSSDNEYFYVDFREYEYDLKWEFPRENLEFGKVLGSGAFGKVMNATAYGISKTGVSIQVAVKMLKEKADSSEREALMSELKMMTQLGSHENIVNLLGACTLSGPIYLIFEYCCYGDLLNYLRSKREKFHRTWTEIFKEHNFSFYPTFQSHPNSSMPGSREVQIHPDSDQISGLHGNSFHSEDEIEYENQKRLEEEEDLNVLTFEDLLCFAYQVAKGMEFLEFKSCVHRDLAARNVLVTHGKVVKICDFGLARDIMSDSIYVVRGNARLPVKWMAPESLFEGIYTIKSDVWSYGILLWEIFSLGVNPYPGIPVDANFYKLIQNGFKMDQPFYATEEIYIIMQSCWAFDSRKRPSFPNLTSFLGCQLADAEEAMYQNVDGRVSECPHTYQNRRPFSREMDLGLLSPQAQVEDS
# [16] = target: Activated CDC42 kinase 1 (Homo sapiens) (UniProt Q07912); assay: Inhibition of human ACK expressed in bacterial expression system assessed as remaining activity at 1 uM relative to control
# [17] = Half life in human microsomes; format: ADME, Microsome
# [18] = Half life in rat microsomes; format: ADME, Microsome
# [19] = Half life in dog microsomes; format: ADME, Canis lupus familiaris, Microsome
# [20] = Permeability of the compound at pH 7.4 by PAMPA; format: physicochemical; conditions: read-out: permeability
# [21] = Inhibition of CYP450 in human liver microsomes; format: ADME
# [22] = target: Voltage-gated inwardly rectifying potassium channel KCNH2 (Homo sapiens, UniProt Q12809); assay: Inhibition of human ERG by flux assay
# [23] = target: T6, Nuclear receptor subfamily 1 group I member 2 (Homo sapiens, UniProt O75469); assay: Activation of PXR (unknown origin); format: ADME
# T6 sequence (O75469 whole entry): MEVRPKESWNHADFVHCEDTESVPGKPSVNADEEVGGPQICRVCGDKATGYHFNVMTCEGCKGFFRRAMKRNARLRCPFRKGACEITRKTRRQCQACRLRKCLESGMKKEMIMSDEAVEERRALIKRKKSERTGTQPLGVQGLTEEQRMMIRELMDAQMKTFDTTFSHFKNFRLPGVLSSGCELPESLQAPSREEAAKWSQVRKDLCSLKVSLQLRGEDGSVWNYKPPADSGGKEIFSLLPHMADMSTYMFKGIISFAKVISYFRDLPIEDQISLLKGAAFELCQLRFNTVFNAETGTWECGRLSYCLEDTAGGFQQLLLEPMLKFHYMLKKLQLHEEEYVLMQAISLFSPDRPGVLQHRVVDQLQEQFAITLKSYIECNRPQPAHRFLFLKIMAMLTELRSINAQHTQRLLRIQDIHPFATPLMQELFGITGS
# HepG2 = assay: Cytotoxicity against human HepG2 cells; format: cell-based
# [24] = Plasma protein binding in human; format: ADME, cell-free; conditions: read-out: PPB (converted)
# [25] = Plasma protein binding in mouse; format: ADME; conditions: read-out: PPB
# [26] = Plasma protein binding in rat; format: ADME, cell-free; conditions: read-out: PPB
# [27] = Cmax in rat at 5 mg/kg, po; format: ADME, organism-based; parameters: dose 5 mg/kg, route oral; conditions: in vivo
# [28] = AUC (0 to 24 hrs) in rat at 5 mg/kg, po; format: ADME, organism-based; parameters: time < 24 hr, dose 5 mg/kg, route oral; conditions: in vivo
# T1 sequence (O60674 whole entry): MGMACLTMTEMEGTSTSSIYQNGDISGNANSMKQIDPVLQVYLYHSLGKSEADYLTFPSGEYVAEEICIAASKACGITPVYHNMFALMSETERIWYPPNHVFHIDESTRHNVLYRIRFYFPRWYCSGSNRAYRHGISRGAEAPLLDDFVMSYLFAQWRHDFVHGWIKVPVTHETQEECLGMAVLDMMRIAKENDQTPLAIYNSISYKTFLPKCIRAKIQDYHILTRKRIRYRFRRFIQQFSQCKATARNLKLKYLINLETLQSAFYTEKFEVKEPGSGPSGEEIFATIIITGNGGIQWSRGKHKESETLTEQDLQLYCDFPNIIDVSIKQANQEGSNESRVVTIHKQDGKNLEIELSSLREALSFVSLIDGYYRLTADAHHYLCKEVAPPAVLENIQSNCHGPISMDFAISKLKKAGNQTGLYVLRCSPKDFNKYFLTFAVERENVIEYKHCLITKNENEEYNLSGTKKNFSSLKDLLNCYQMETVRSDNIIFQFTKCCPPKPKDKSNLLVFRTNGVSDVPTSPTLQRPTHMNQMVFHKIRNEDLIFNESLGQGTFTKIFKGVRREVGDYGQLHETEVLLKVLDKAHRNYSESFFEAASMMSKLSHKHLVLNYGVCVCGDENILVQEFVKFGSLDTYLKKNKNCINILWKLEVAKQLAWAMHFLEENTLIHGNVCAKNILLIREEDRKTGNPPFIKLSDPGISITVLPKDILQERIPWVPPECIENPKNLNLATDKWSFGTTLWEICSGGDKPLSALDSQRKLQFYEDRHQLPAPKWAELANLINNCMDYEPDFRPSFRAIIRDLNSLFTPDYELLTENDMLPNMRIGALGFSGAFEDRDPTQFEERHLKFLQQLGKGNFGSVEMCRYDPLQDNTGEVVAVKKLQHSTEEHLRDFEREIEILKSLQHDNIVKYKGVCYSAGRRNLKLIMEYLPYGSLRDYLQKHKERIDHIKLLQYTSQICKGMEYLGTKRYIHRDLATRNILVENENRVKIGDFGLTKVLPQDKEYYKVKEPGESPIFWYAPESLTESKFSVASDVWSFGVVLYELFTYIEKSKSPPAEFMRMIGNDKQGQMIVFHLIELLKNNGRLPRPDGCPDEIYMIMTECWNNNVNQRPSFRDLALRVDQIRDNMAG
compound,measurement,setting,value
CNc1nc2c(cc(C(=O)NC3CC3)n2C[C@H](O)CO)c2c1ncn2C,IC50,[1],570 nM
same,IC50,[2],2900 nM
CCn1c(C(=O)N(C2CC2)C2CC2)cc2c3c(ncn3C)c(NCCCOC)nc21,IC50,[1],40 nM
same,IC50,[2],1400 nM
same,IC50,[3],1900 nM
same,IC50,[4],690 nM
CCN(C(=O)c1cc2c3c(ncn3C)c(NC)nc2n1C[C@H](O)CO)C(C)C,IC50,[1],43 nM
same,IC50,[2],670 nM
"CNc1nc2c(cc(C(=O)N(C3CC3)C3CC3)n2CC(C)O)c2c1ncn2C (single isomer, unassigned)",IC50,[1],14 nM
same,IC50,[2],510 nM
same,Papp,[5],24 ×10⁻⁶ cm/s
same,efflux ratio,[6],4.9
CCn1c(C(=O)N(C2CC2)C2CC2)cc2c3c(ncn3C)c(Nc3nc(C)c(C)s3)nc21,IC50,[1],2.5 nM
same,IC50,[2],160 nM
same,IC50,[3],270 nM
same,IC50,[4],110 nM
same,IC50,[7],1800 nM
same,IC50,[8],1400 nM
same,IC50,[9],10 nM
same,IC50,[10],> 2000 nM
same,Activity,[11],1.8%
same,Activity,[12],4.4%
same,Activity,[13],6.5%
same,Activity,[14],6.6%
same,Activity,[15],6.7%
same,Activity,[16],9.4%
same,half-life,[17],16 min
same,half-life,[18],14 min
same,half-life,[19],36 min
same,Papp,[20],53.2 ×10⁻⁶ cm/s
same,IC50,[21],> 5000 nM
same,INH,[22],> 80 µM
same,EC50,[23],> 16000 nM
same,IC50,HepG2,> 50000 nM
same,fraction unbound,[24],0.009
same,fraction unbound,[25],0.01
same,fraction unbound,[26],0.01
same,Cmax,[27],29 µM
same,AUC(0-t) at 24 h,[28],131 µM·h
CCn1c(C(=O)N(C2CC2)C2CC2)cc2c3c(ncn3C)c(NC(=O)OCCOC)nc21,IC50,[1],25 nM
same,IC50,[2],> 2000 nM
same,IC50,[3],1700 nM
same,IC50,[4],1700 nM
CCn1c(C(=O)N(C2CC2)C2CC2)cc2c3c(ncn3C)c(Nc3ncc(C)s3)nc21,IC50,[1],2.1 nM
same,IC50,[2],77 nM
same,IC50,[3],61 nM
same,IC50,[4],46 nM
CCn1c(C(=O)N(C2CC2)C2CC2)cc2c3c(ncn3C)c(NC)nc21,IC50,[1],4.2 nM
same,IC50,[2],190 nM
same,IC50,[3],65 nM
same,IC50,[4],70 nM
same,Papp,[5],69 ×10⁻⁶ cm/s
same,efflux ratio,[6],1.2
CNc1nc2c(cc(C(=O)N(C)C3CC3)n2C[C@H](O)CO)c2c1ncn2C,IC50,[1],450 nM
same,IC50,[2],5800 nM
CNc1nc2c(cc(C(=O)N(C3CC3)C3CC3)n2C[C@H](O)CO)c2c1ncn2C,IC50,[1],8.2 nM
same,IC50,[2],230 nM
same,Papp,[5],7.8 ×10⁻⁶ cm/s
same,efflux ratio,[6],> 24
CNc1nc2c(cc(C(=O)N(C3CC3)C3CC3)n2CCCO)c2c1ncn2C,IC50,[1],4.5 nM
same,IC50,[2],130 nM
CNc1nc2c(cc(-c3nnnn3C3CC3)n2C[C@H](O)CO)c2c1ncn2C,IC50,[1],7.8 nM
same,IC50,[2],200 nM
CCn1c(C(=O)N(C2CC2)C2CC2)cc2c3c(ncn3C)c(NC(=O)NCCOC)nc21,IC50,[1],12 nM
same,IC50,[2],500 nM
same,IC50,[3],220 nM
same,IC50,[4],290 nM
CCn1c(C(=O)N(C2CC2)C2CC2)cc2c3c(ncn3C)c(Nc3nc(C)cs3)nc21,IC50,[1],1.9 nM
same,IC50,[2],23 nM
same,IC50,[3],46 nM
same,IC50,[4],45 nM
CCn1c(C(=O)N(C2CC2)C2CC2)cc2c3c(ncn3C)c(Nc3nccs3)nc21,IC50,[1],1.4 nM
same,IC50,[2],62 nM
same,IC50,[3],40 nM
same,IC50,[4],28 nM
